This is an account of results in US20220312771A1, “BIOCIDAL COMPOSITE MATERIAL” (PENNOG LIMITED, priority 2019, published 2022).

This experiment relates to Chlorella sp. Kind of experiment: Growth of Chlorella sp. in Jaworskis Medium with different concentrations of copper. It is filed as cell-based. The conditions noted are these: 14 days. The protocol:
Fresh water algae Chlorella sp. cultivated at between 10° C. and 20° C. for 14 days on Jaworskis Medium (Table below) was inoculated into fresh, sterile Jaworskis Medium (prepared as per Table 11) containing copper sulphate solution and copper-containing soak solutions. The soak solution was obtained from the third soak of the second cycle of phototreated MSMCu from Example 3. The extent of growth of Chlorella sp. was observed after a further 14 days (Table 12).
After 14 days in different concentrations of copper.

Take `O=S(=O)([O-])[O-].[Cu+2]` [Copper sulphate solution, copper sulphate]: the “Growth of Chlorella sp., Abs 665 nm” value is 0.137 (copper concentration 1 μg/L); 0.143 (copper concentration 2 μg/L); 0.103 (copper concentration 5 μg/L); 0.081 (copper concentration 7 μg/L); 0.092 (copper concentration 9 μg/L). The “Growth of Chlorella sp., Abs 780 nm” value runs as follows: (copper concentration 1 μg/L) 0.118; (copper concentration 2 μg/L) 0.128; (copper concentration 5 μg/L) 0.096; (copper concentration 7 μg/L) 0.077; (copper concentration 9 μg/L) 0.077.
